Assay results taken from patent US6057371A, “Sigma receptor ligands and the use thereof” (Virginia Commonwealth University, priority 1992, dated 2000).
Values joined by “and” are separate entries in the source; they are usually repeats but may differ in a detail not shown here. Equal values may be shown once. Read-outs that look alike come from different tables or passages of the source.

Tests used:
sigma receptor = assay: Sigma receptor binding, [^3 H]DTG, brain membranes (both sigma-1 and sigma-2 sites); design: species or system guinea pig; conditions: for IC50: Table 6, [^3 H]DTG
PCP receptor = PCP receptor binding, ^3 H-MK-801; design: species or system rat; conditions: Table 4
Experimental: PCP receptor binding assays against ^3 H-MK-801 were conducted as described by Keana et al., Proc. Natl. Acad. Sci (USA) 86: 5631-5635 (1989); Keana et al., Life Sciences 43: 965-973 (1988). For (+) ^3 H-MK-801 binding, 1 nM of radioligand was incubated with about 100 ug of thawed rat brain membrane protein for 4 hr at room temperature. The assays were carried out in 5 mM Tris/acetate and were stopped by rapid filtration through Whatman GF/B or Schleicher & Schuell no. 32 glass fiber filters (presoaked in 0.05% polyethylenamine).

Dopamine D1 receptor = biological target: T1, Dopamine D1 receptor (Rattus norvegicus, UniProt P18901); assay: Dopamine D1 receptor binding, [^3 H]SCH-23390, striatal membranes; conditions: Table 4
T1 construct: Rat striatal membranes were prepared from frozen tissue; from tissue; host or cells: rat striatum, frozen tissue
Experimental: (§1) Dopamine D1 and D2 receptor binding assays were performed as described by Billard et al., Life Sci. 35: 1885-1893 (1984) using [^3 H]SCH-23390 for the D1 receptors and [^3 H]domperidone for the D2 receptors (Baudry et al., Arch. Pharmacol. 308: 231-237 (1979).
(§2) Rat striatal membranes were prepared from frozen tissue by Poltron homogenization in 25 volumes of ice cold Tris-EDTA buffer (50 mM Tris-HCl, 1 mM EDTA, pH 7.4 at 4° C.). The homogenate was centrifuged at 48,000× g for 10 min. at 4° C., and the pellet was resuspended in 25 volumes of the same buffer. This suspension was then incubated at 37° C. for 15 min., followed by recentrifugation as before. The resulting pellet was resuspended in 267 volumes of assay buffer (50 mM Tris-HCl, 120 mM NaCl, 5 mM KCl, 2 mM CaCl2, 1 mM MgCl2, pH 7.4 at 37° C.).
(§3) The binding assays were conducted with 100 uL of [^3 H]SCH-23390 or [^3 H]domperidone (to give about 1 nM final), 100 uL of buffer or drug solution, and 800 uL of membrane suspension (to give about 250 ug of striatal membrane protein per assay). The tubes were incubated at 37° C. for 60 min. The assays were stopped by rapid filtration over Schleicher & Schuell #32 or Whatman GF/B glass fiber filters (presoaked in 0.5% polyethyleneimine for [^3 H]domperidone binding), followed by two 3 mL washes of ice cold buffer using a Brandel cell harvester. After vigorous shaking, the filter disks were counted at 52% efficiency in 5 mL of Cytoscint (ICN).

Dopamine D2 receptor = biological target: T2, Dopamine D2 receptor (Rattus norvegicus, UniProt P61169); assay: Dopamine D2 receptor binding, [^3 H]domperidone, striatal membranes; conditions: Table 4
T2 construct: Rat striatal membranes were prepared from frozen tissue; from tissue; host or cells: rat striatum, frozen tissue
Experimental: as §1, §2, §3

sigma-1 binding site = biological target: T3, sigma-1 binding site (Cavia porcellus, UniProt Q60492); assay: biochemical; design: species or system guinea pig; conditions: for Ki: read-out: SIGMA-1 KI vs. 3H-PENTAZOCINE MEAN
T3 construct: Guinea pig whole membrane preparations (P2 microsomal fraction); from tissue; host or cells: guinea pig membranes (P2 microsomal fraction), as described by Weber et al; brain inferred from the sister test b489
Experimental: [^3 H]DTG was purchased from DuPont/NEN.
The radioactivity on the filters was determined by scintillation spectrometry at an efficiency of about 50% using Cytoscint (ICN) scintillation fluid.

sigma-2 binding site [1] = biological target: T4, sigma-2 binding site (Cavia porcellus, UniProt H0V073); assay: biochemical; design: species or system guinea pig; conditions: for IC50: Table 17, read-out: IC50 (nM) at sigma-2
T4 construct: Guinea pig whole membrane preparations (P2 microsomal fraction); from tissue; host or cells: guinea pig membranes (P2 microsomal fraction), as described by Weber et al; brain inferred from the sister test b489
T4 sequence (H0V073 1-176): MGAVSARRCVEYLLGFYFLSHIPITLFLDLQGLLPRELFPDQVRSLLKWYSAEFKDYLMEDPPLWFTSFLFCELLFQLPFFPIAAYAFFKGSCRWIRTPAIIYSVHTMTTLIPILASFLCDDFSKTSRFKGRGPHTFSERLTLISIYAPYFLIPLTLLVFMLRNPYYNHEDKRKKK
Experimental: (§4) For the standard equilibrium assay, the mixtures were incubated for 30 min. at room temperature, then filtered and the radioactivity determined as described above.

5-HT1A receptor = biological target: T5, 5-HT1A receptor (Rattus norvegicus, UniProt P19327); assay: biochemical; type: binding; design: 47: 529-540 (1986); from tissue; host or cells: brain tissue, inferred from the cited method (rat frontal cortex); conditions: for IC50: read-out: 5-HT1A IC50
T5 sequence (P19327 1-422): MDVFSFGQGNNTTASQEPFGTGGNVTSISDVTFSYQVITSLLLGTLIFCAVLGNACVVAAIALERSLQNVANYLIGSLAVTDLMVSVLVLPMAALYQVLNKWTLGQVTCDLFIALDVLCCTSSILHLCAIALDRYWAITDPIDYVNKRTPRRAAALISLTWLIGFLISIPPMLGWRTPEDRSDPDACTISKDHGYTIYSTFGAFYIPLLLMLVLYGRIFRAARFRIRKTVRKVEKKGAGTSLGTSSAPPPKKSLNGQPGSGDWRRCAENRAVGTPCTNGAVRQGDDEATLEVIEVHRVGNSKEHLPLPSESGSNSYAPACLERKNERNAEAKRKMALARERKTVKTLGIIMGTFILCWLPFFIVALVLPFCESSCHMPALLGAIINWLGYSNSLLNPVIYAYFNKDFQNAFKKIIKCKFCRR
Experimental: Further sigma receptor binding assays against [^3 H]DTG and 5HT-1A binding assays were conducted according to the procedure outlined in the previous examples.

sigma-2 binding site [2] = assay: biochemical; design: species or system guinea pig; conditions: for sigma-1/sigma-2 ratio: Example 9; for ratio of sigma-1/sigma-2 (sigma-2 selective compounds): greater than about 10, see Table 10
Experimental: as §4

sigma sites = conditions: cited, cited from earlier work; for affinity for sigma-1 site compared to sigma-2 site: Hellewell and Bowen
[3] = cited, Glennon 1984; cited from earlier work
[4] = Table 10, read-out: SIGMA-2 KI vs. 3H-DTG + PENTAZOCINE MEAN

T3 sequence (Q60492 whole entry): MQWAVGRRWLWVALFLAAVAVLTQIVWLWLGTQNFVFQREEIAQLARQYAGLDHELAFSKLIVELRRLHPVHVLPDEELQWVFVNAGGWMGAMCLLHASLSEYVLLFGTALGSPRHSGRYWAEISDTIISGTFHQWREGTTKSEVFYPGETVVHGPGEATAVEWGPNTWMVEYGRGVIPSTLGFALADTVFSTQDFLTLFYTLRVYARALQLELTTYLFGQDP
T2 sequence (P61169 whole entry): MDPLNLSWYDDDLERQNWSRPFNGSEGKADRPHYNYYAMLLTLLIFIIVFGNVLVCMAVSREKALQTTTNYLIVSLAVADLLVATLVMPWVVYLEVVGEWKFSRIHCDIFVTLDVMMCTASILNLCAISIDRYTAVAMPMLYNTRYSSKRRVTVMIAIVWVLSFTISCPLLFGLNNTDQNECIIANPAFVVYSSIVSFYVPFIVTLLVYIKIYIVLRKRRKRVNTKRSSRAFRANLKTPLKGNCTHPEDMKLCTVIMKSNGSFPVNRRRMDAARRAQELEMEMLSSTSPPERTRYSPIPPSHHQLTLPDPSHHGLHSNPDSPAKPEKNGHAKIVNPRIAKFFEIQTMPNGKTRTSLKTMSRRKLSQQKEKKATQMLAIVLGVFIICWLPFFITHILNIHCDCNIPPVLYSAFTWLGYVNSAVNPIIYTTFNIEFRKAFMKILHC
T1 sequence (P18901 whole entry): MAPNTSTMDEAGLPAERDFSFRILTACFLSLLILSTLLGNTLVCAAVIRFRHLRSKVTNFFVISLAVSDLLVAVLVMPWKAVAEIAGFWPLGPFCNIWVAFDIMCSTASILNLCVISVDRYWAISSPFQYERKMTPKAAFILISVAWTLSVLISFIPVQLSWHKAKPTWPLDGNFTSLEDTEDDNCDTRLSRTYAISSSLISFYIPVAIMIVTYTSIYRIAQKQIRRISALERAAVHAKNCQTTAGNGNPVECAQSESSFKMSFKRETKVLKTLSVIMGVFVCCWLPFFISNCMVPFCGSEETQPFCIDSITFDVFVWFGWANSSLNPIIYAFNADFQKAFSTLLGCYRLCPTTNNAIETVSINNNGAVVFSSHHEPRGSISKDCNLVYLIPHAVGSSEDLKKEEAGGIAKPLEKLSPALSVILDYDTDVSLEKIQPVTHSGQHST

| SMILES | IC50 (PCP receptor) | IC50 (Dopamine D1 receptor) | IC50 (Dopamine D2 receptor) | Ki (sigma-1 binding site; Table 10) | Ki (sigma-2 binding site [1]; [4]) | IC50 (5-HT1A receptor; Table 5) | also measured |
| --- | --- | --- | --- | --- | --- | --- | --- |
| c1ccc(CCCNCCCc2ccccc2)cc1 [Compound 15, Di-(3-phenylpropyl)-amine] | > 10000 nM | > 10000 nM | 1680 ± 3600 nM | 11.4 nM | 63.9 nM | 30.7 nM | Ki (sigma receptor; Table 7, Phenyl-(CH2)x -NH--(CH2)y -Phenyl, read-out: Ki): 14 nM; S1/S2 Ratio (sigma-1 binding site; Table 10, sigma-1/sigma-2): .178; Ratio 5-HT1A /σ (5-HT1A receptor; Table 5): 2 |
| COc1ccccc1N1CCN(CCCCN2C(=O)c3ccccc3C2=O)CC1 [Compound 120, N-(4-(1-phthalimido)butyl)-N'-(o-methoxyphenyl)piperazine] | – | – | – | 512 nM | 76.6 nM | – | IC50 (sigma receptor): 64.7 nM; S1/S2 Ratio (sigma-1 binding site; Table 10, sigma-1/sigma-2): 6.683; sigma-1/sigma-2 ratio (sigma-2 binding site [2]): 7 |
| O=C1c2ccccc2C(=O)N1CCCCN1CCN(c2ccccc2)CC1 [Compound 97] | – | – | – | 195 nM | 20.4 nM | – | IC50 (sigma receptor): 20.3 nM; S1/S2 Ratio (sigma-1 binding site; Table 10, sigma-1/sigma-2): 9.587; sigma-1/sigma-2 ratio (sigma-2 binding site [2]): 10; ratio of sigma-1/sigma-2 (sigma-2 selective compounds) (sigma-2 binding site [2]): greater than 10 |
| c1ccc(N2CCN(CCCc3ccc4ccccc4c3)CC2)cc1 [Compound 51] | > 10000 nM | 2990 ± 40 nM | 158 ± 28 nM | – | – | – | – |
| OC1(c2ccccc2)CCN(CCCc2ccccc2)CC1 [Compound 40, 4-Hydroxy-4-phenyl-1-(3-phenylpropyl)piperidine] | > 10000 nM | > 10000 nM | – | 0.68 nM | 9.2 nM and 7.03 nM | 2960 nM | IC50 ratio of sigma-1/sigma-2 (sigma-1 selective compounds) (sigma-1 binding site): less than 0.1; S1/S2 Ratio (sigma-1 binding site; guinea pig, microsomes): 0.074 and 0.096; Ratio 5-HT1A /σ (5-HT1A receptor): 970 |
| C=CCN1CC[C@]2(C)c3cc(O)ccc3C[C@H]1[C@H]2C [(+)SKF 10047, reference compound] | – | – | – | – | – | – | Ki (sigma-2 binding site [1]; SIGMA-2 KI vs. 3H-DTG + PENTAZOCINE MEAN): 16200 nM; affinity for sigma-1 site compared to sigma-2 site (sigma sites): nearly two orders of magnitude higher affinity for the sigma-1 site compared to the sigma-2 site |
| C[C@H](Cc1ccccc1)NCCCc1ccccc1 [Compound 1, R(-)N-(1-phenyl-2-propyl)-3-phenylpropylamine] | > 10000 nM | > 10000 nM | 4650 ± 430 nM | – | 60.8 nM | 115 nM | Ki (sigma-2 binding site [1]; Example 9, read-out: sigma-2 binding affinity): 60 nM; IC50 (sigma-2 binding site [1]): 60 nM |
| c1ccc(CCNCCCc2ccc3ccccc3c2)cc1 [Compound 41] | > 10000 nM | > 10000 nM | 1920 ± 190 nM | – | – | 34.7 nM | Ratio 5-HT1A /σ (5-HT1A receptor; Table 5): 7.6 |
| O=C(CCCN1CCC(O)(c2ccc(Cl)cc2)CC1)c1ccc(F)cc1 [Haloperidol] | – | – | – | – | – | – | affinity for sigma sites vs. N-allyl normetrazocine (NANM) (sigma sites; Tam 1984): approximately 100 fold |
| CC(C)=CCN1CCC2(C)c3cc(O)ccc3CC1C2C (single isomer, unassigned; (+)) [(+)Pentazocine] | – | – | – | – | – | – | affinity for sigma-1 site compared to sigma-2 site (sigma sites): nearly two orders of magnitude higher affinity for the sigma-1 site compared to the sigma-2 site |
| O=C1c2ccccc2C(=O)N1CCCN1CCN(c2ccccc2)CC1 [Compound 96, N-phenyl-N'-(3-(1-phthalimido)propyl)piperazine] | – | – | – | 3100 nM | 149 nM | – | IC50 (sigma receptor): 141 nM; sigma-1/sigma-2 ratio (sigma-2 binding site [2]): 87; ratio of sigma-1/sigma-2 (sigma-2 selective compounds) (sigma-2 binding site [2]): greater than 10 |
| NC1CCc2ccccc2C1 (centres unmarked) [2-aminotetralin] | – | – | – | – | – | – | effectiveness vs. racemic amphetamine [3]: about one-half as effective as racemic amphetamine |
| CC(Cc1ccc(I)cc1)NCCCc1ccccc1 (racemic) [Compound 22, (±) N-[1-(4'-Iodophenyl)-2-propyl]-3-phenylpropylamine] | > 10000 nM | > 10000 nM | – | 17.7 nM | 76 nM | 202 nM | IC50 (sigma-1 binding site; Table 12, read-out: IC50 (nM) at sigma-1): 17.7 nM; S1/S2 Ratio (sigma-1 binding site; guinea pig, microsomes): 0.232; IC50 (sigma-2 binding site [1]): 76 nM; Ratio 5-HT1A /σ (5-HT1A receptor): 13 |
